Source: patent US20250325552A1, “SUBSTITUTED THIADIAZOLYL DERIVATIVES AS DNA POLYMERASE THETA INHIBITORS” (IDEAYA Biosciences, Inc., priority 2020, published 2025)

target: Polθ theta (1-899) (hPolQ) (Homo sapiens (Human), UniProt O75417); experiment: Biological Assay 1: Polθ ATPase activity, NADH oxidation-coupled enzymatic assay (10 nM enzyme, 30 min); assay type: biochemical; conditions: Polθ (1-899) 10 nM, 100 μM ATP, 300 nM dT50 ssDNA; Examples 1 to 268; read-out: ATPase NADH coupling:Standard Screening:hPolQ IC50
How it was run: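 ATP turnover was coupled to NADH oxidation and followed at 340 nm every minute for 30 min. Enzyme (residues 1-899, 10 nM) sat with compound for 15 min at room temperature before an equal-volume addition of 100 μM ATP plus 300 nM dT50 ssDNA. Progress-curve slopes from 10-point dilutions were fitted by a four-parameter model.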

Polθ theta (1-899) (hPolQ), sequence (O75417 1-899): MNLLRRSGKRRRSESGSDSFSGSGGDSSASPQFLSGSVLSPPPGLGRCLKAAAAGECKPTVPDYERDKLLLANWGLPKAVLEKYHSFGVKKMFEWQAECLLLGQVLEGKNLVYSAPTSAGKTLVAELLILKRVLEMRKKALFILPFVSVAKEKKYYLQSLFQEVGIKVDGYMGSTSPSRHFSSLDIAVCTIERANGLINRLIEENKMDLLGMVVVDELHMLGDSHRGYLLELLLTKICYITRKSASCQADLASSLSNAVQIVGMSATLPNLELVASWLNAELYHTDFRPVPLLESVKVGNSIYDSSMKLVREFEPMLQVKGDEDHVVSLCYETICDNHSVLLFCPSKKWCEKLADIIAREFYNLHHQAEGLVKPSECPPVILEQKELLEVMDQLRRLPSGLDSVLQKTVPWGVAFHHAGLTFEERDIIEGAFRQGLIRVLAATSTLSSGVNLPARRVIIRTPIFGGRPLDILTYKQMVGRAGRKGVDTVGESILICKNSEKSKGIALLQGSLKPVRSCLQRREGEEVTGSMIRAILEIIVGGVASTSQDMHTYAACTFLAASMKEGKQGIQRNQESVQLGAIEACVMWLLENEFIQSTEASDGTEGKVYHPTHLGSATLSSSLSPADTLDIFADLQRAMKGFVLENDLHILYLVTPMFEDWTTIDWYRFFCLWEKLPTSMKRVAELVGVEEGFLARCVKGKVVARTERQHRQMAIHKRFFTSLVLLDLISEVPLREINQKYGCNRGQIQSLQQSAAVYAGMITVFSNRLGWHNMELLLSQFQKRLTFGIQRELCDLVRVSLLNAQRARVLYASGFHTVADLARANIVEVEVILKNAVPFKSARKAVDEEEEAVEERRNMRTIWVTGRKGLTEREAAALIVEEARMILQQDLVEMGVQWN

Row | Structure (SMILES) | IC50 [nM]
1 | COc1cccc(F)c1-c1cc(C)ncc1C(=O)Nc1nnc(OCc2ccc(OC(C)C)cn2)s1 [Example 75, 4-(2-fluoro-6-methoxyphenyl)-N-(5-((5-isopropoxypyridin-2-yl)methoxy)-1,3,4-thiadiazol-2-yl)-6-methylnicotinamide] | ≤ 200
2 | COc1cccc(F)c1-c1cc(C)ncc1C(=O)Nc1nnc(OCc2ccc(C(C)(C)O)nc2)s1 [Example 109, 4-(2-fluoro-6-methoxyphenyl)-N-(5-((6-(2-hydroxypropan-2-yl)pyridin-3-yl)methoxy)-1,3,4-thiadiazol-2-yl)-6-methylpyridine-3-carboxamide] | ≤ 200
3 | Cc1cc(-c2cc(CO)ccc2F)c(C(=O)Nc2nnc(OCc3ccc(Cl)cn3)s2)cn1 [Example 23, N-(5-((5-chloropyridin-2-yl)methoxy)-1,3,4-thiadiazol-2-yl)-4-(2-fluoro-5-(hydroxymethyl)phenyl)-6-methylnicotinamide] | ≤ 200
4 | COc1cccc(F)c1-c1cc(C)ncc1C(=O)Nc1nnc(OCc2ccc3c(n2)CCOC3)s1 [Example 102, 4-(2-fluoro-6-methoxyphenyl)-6-methyl-N-(5-(5H,7H,8H-pyrano(4,3-b)pyridin-2-ylmethoxy)-1,3,4-thiadiazol-2-yl)pyridine-3-carboxamide] | ≤ 200
5 | COc1cccc(F)c1-c1cc(C)ncc1C(=O)Nc1nnc(OCc2ccc([C@H](C)OC)cn2)s1 [Example 93, 4-(2-fluoro-6-methoxyphenyl)-N-(5-((5-((S)-1-methoxyethyl)pyridin-2-yl)methoxy)-1,3,4-thiadiazol-2-yl)-6-methylnicotinamide] | ≤ 200
6 | COc1cccc(F)c1-c1cc(C)ncc1C(=O)Nc1nnc(OCc2ccc(S(C)(=O)=O)cn2)s1 [Example 24, 4-(2-fluoro-6-methoxyphenyl)-6-methyl-N-(5-((5-(methylsulfonyl)pyridin-2-yl)methoxy)-1,3,4-thiadiazol-2-yl)nicotinamide] | ≤ 200
7 | COc1cccc(F)c1-c1cc(C)ncc1C(=O)Nc1nnc(OCc2ccc(OC(F)F)cn2)s1 [Example 49, N-(5-((5-(difluoromethoxy)pyridin-2-yl)methoxy)-1,3,4-thiadiazol-2-yl)-4-(2-fluoro-6-methoxyphenyl)-6-methylnicotinamide] | ≤ 200
8 | COc1cnc(Cl)cc1-c1cc(C)ncc1C(=O)Nc1nnc(OCC23CC(O)(C2)C3)s1 [Example 99, 2′-chloro-N-(5-((3-hydroxybicyclo(1.1.1)pentan-1-yl)methoxy)-1,3,4-thiadiazol-2-yl)-5′-methoxy-6-methyl-(4,4′-bipyridine)-3-carboxamide] | ≤ 200
9 | COc1cccc(F)c1-c1cc(C)ncc1C(=O)Nc1nnc(OCc2ccc(CCO)cn2)s1 [Example 55, 4-(2-fluoro-6-methoxyphenyl)-N-(5-((5-(2-hydroxyethyl)pyridin-2-yl)methoxy)-1,3,4-thiadiazol-2-yl)-6-methylnicotinamide] | ≤ 200
10 | Cc1cc(-c2cc(C)ncc2C(=O)Nc2nnc(OCc3ccc(C(C)(C)O)cn3)s2)ccn1 [Example 89, N-(5-((5-(2-hydroxypropan-2-yl)pyridin-2-yl)methoxy)-1,3,4-thiadiazol-2-yl)-2′,6-dimethyl-(4,4′-bipyridine)-3-carboxamide] | 200 to 500
11 | COc1ccc(COc2nnc(NC(=O)c3cnc(C)cc3-c3cc(Cl)ncc3OC)s2)nc1 [Example 45, 2′-chloro-5′-methoxy-N-(5-((5-methoxypyridin-2-yl)methoxy)-1,3,4-thiadiazol-2-yl)-6-methyl-(4,4′-bipyridine)-3-carboxamide] | ≤ 200
12 | COc1cnc(Cl)cc1-c1cc(C)ncc1C(=O)Nc1nnc(OCC2CC3(CC(O)C3)C2)s1 (stereo not shown) [Example 138, 2′-chloro-N-(5-((6-hydroxyspiro[3.3]heptan-2-yl)methoxy)-1,3,4-thiadiazol-2-yl)-5′-methoxy-6-methyl-[4,4′-bipyridine]-3-carboxamide] | ≤ 200
13 | COc1ccccc1-c1cc(C)ncc1C(=O)Nc1nnc(OCc2cccc(CO)n2)s1 [Example 6, N-(5-((6-(hydroxymethyl)pyridin-2-yl)methoxy)-1,3,4-thiadiazol-2-yl)-4-(2-methoxyphenyl)-6-methylpyridine-3-carboxamide] | ≤ 200
14 | Cc1cc(-c2c(F)cccc2OC(F)F)c(C(=O)Nc2nnc(OCc3cnc(CO)cn3)s2)cn1 [Example 70, 4-(2-(difluoromethoxy)-6-fluorophenyl)-N-(5-((5-(hydroxymethyl)pyrazin-2-yl)methoxy)-1,3,4-thiadiazol-2-yl)-6-methylnicotinamide] | ≤ 200
15 | Cc1cc(-c2c(F)cccc2OC(F)F)c(C(=O)Nc2nnc(OCc3ccc([C@H](C)O)cn3)s2)cn1 [Example 56, 4-(2-(difluoromethoxy)-6-fluorophenyl)-N-(5-((5-((S)-1-hydroxyethyl)pyridin-2-yl)methoxy)-1,3,4-thiadiazol-2-yl)-6-methylnicotinamide] | ≤ 200
16 | COc1ccc(C)cc1-c1cc(C)ncc1C(=O)Nc1nnc(OCc2cnc(CO)cn2)s1 [Example 134, N-(5-((5-(hydroxymethyl)pyrazin-2-yl)methoxy)-1,3,4-thiadiazol-2-yl)-4-(2-methoxy-5-methylphenyl)-6-methylpyridine-3-carboxamide] | ≤ 200
17 | COc1cccc(F)c1-c1cc(C)ncc1C(=O)Nc1nnc(OC[C@H]2CC[C@@H](O)CC2)s1 [Example 101, 4-(2-fluoro-6-methoxyphenyl)-N-(5-(((1s,4s)-4-hydroxycyclohexyl)methoxy)-1,3,4-thiadiazol-2-yl)-6-methylnicotinamide] | ≤ 200

Further lines, results first:

Row | IC50 [nM] | Structure (SMILES)
18 | 1000 to 10000 | COc1cnc(Cl)cc1-c1cc(C)ncc1C(=O)Nc1nnc(OCC2CNC2)s1 [Example 173, N-(5-(azetidin-3-ylmethoxy)-1,3,4-thiadiazol-2-yl)-2′-chloro-5′-methoxy-6-methyl-(4,4′-bipyridine)-3-carboxamide]
19 | 1000 to 10000 | COc1cccc(F)c1-c1cn2ncc(C)c2cc1C(=O)Nc1nnc(OC[C@H]2CC[C@H](O)CC2)s1 [Example 194, 6-(2-fluoro-6-methoxyphenyl)-N-(5-(((1r,4r)-4-hydroxycyclohexyl)methoxy)-1,3,4-thiadiazol-2-yl)-3-methylpyrazolo(1,5-a)pyridine-5-carboxamide]
20 | ≤ 200 | Cc1cc(-c2cc(Cl)ncc2OC(F)F)c(C(=O)Nc2nnc(OCC3CCOC3)s2)cn1 (racemic) [Example 259, 2′-chloro-5′-(difluoromethoxy)-6-methyl-N-(5-((tetrahydrofuran-3-yl)methoxy)-1,3,4-thiadiazol-2-yl)-(4,4′-bipyridine)-3-carboxamide]
21 | ≤ 200 | COc1cnc(Cl)cc1-c1cc(C)ncc1C(=O)Nc1nnc(OCC2CCO2)s1 (racemic) [Example 165, 2′-chloro-5′-methoxy-6-methyl-N-(5-(oxetan-2-ylmethoxy)-1,3,4-thiadiazol-2-yl)-(4,4′-bipyridine)-3-carboxamide]
22 | ≤ 200 | COc1cnc(Cl)cc1-c1cc(C)ncc1C(=O)Nc1nnc(OC[C@H]2COCC(C)(C)O2)s1 (single isomer, unassigned) [Example 221]
23 | ≤ 200 | COc1cnc(C)cc1-c1cc(C)ncc1C(=O)Nc1nnc(OCC2(F)CC2)s1 [Example 203, N-(5-((1-fluorocyclopropyl)methoxy)-1,3,4-thiadiazol-2-yl)-5′-methoxy-2′,6-dimethyl-(4,4′-bipyridine)-3-carboxamide]
24 | ≤ 200 | COc1cnc(Cl)cc1-c1cc(C)ncc1C(=O)Nc1nnc(OCC23CC(C(C)(C)O)(C2)C3)s1 [Example 143, 2′-chloro-N-(5-((3-(2-hydroxypropan-2-yl)bicyclo(1.1.1)pentan-1-yl)methoxy)-1,3,4-thiadiazol-2-yl)-5′-methoxy-6-methyl-(4,4′-bipyridine)-3-carboxamide]
25 | ≤ 200 | COc1cnc(Cl)cc1-c1cc(C)ncc1C(=O)Nc1nnc(OC[C@H]2CO[C@H](C)C2)s1 (single isomer, unassigned) [Example 252]
26 | ≤ 200 | COc1cnc(Cl)c(F)c1-c1cc(C)ncc1C(=O)Nc1nnc(OC[C@H]2CC[C@H](O)CC2)s1 [Example 248, 2′-chloro-3′-fluoro-N-(5-(((1r,4r)-4-hydroxycyclohexyl)methoxy)-1,3,4-thiadiazol-2-yl)-5′-methoxy-6-methyl-(4,4′-bipyridine)-3-carboxamide]
27 | ≤ 200 | COc1ccccc1-c1cc(C)ncc1C(=O)Nc1nnc(OCc2ccc(CO)cn2)s1 [compound 5, N-(5-((5-(hydroxymethyl)pyridin-2-yl)methoxy)-1,3,4-thiadiazol-2-yl)-4-(2-methoxyphenyl)-6-methylnicotinamide]
28 | ≤ 200 | COc1cnc(Cl)cc1-c1cc(C)ncc1C(=O)Nc1nnc(OC[C@H]2COCCO2)s1 [Example 187, (R)—N-(5-((1,4-dioxan-2-yl)methoxy)-1,3,4-thiadiazol-2-yl)-2′-chloro-5′-methoxy-6-methyl-(4,4′-bipyridine)-3-carboxamide]
29 | ≤ 200 | COc1cnc(Cl)cc1-c1cc(C)ncc1C(=O)Nc1nnc(OC[C@H]2CC[C@H](F)CC2)s1 [Example 197, 2′-chloro-N-(5-(((1r,4r)-4-fluorocyclohexyl)methoxy)-1,3,4-thiadiazol-2-yl)-5′-methoxy-6-methyl-(4,4′-bipyridine)-3-carboxamide]
30 | ≤ 200 | COc1cnc(Cl)cc1-c1cc(C)ncc1C(=O)Nc1nnc(OC[C@H]2CCO[C@@H]2C)s1 (single isomer, unassigned) [Example 182]

same assay, conditions: Polθ (1-899) 10 nM, 100 μM ATP, 300 nM dT50 ssDNA; value printed as bound; read-out: ATPase NADH coupling:Standard Screening:hPolQ IC50

Row | IC50 [nM] | Structure (SMILES)
31 | > 10000 | O=C(Nc1nnc(OCC2CCOCC2)s1)c1cccnc1N1CCOCC1 [Example 157, 2-morpholino-N-(5-((tetrahydro-2H-pyran-4-yl)methoxy)-1,3,4-thiadiazol-2-yl)nicotinamide]
